{"source": "patent US8410178B2", "about": "“CIS 3,4-dihydroxy-2-(3-methylbutanoyl)-5-(3-methylbutyl)-4-(4-methylpentanoyl)cyclopent-2-en-1-derivatives, substantially enantiomerically pure compositions and methods” (KinDex Therapeutics, LLC, priority 2010, dated 2013)", "key": {"3T3-L1 adipocytes": {"system": "3T3-L1 adipocytes", "assay": "Lipogenesis in 3T3-L1 adipocytes (Oil Red O staining)", "assay_type": "cell-based, Murine", "experimental": "The effect of (+)-KDT501 on lipogenesis was evaluated in 3T3-L1 adipocytes.\nMurine 3T3-L1 preadipocytes (ATCC, Rockville, Md.) were maintained in DMEM (Invitrogen, Rockville, Md.) supplemented with 10% fetal bovine serum (FBS; ATCC). As preadipocytes, 3T3-L1 cells have a fibroblastic appearance. They replicate in culture until they form a confluent monolayer, after which cell-cell contact triggers G0/G1 growth arrest. Subsequent stimulation with 3-isobutyl-1-methylxanthane, dexamethasone, and high does of insulin for two days prompts the cells to undergo post-confluent mitotic clonal expansion, exit the cell cycle, and begin to express adipocyte-specific genes. Approximately five days after induction of differentiation, the cells display the characteristic lipid-filled adipocyte phenotype.\nCells were seeded at an initial density of approximately […] in 24-well plates and allowed to grow for 2 days to confluence. […]\nMicroscopic evaluation was performed at day 0 and every two days throughout testing to assess preadipocyte differentiation to adipocyte morphology. Intracellular lipid was quantified with Oil Red O staining. […] 150 μL of sample was transferred to a 96 well plate and absorbance was measured at 530 nm using a plate reader (Thermo Electron Corp.). […]"}, "THP-1 cells": {"system": "THP-1 cells", "assay": "TNF-α- and LPS-mediated inflammatory factors in THP-1 cells", "assay_type": "cell-based, human", "conditions": "TNF-α and LPS-induced, 50, 25, 12.5 and 3.125 μM", "experimental": "The anti-inflammatory effect of (+)-KDT501 was evaluated in human monocytic THP-1 cells.\nTHP-1 cells (ATCC, Manassas, Va.) were maintained in RPMI1640 in the presence of 10% serum according to manufacturer's instructions. The cells were pre-incubated with (+)-KDT501 at varying concentrations (50, 25, 12.5 and 3.125 μM) for one hour, then stimulated with TNF-α(10 ng/ml; Sigma, St. Louis, Mo.) or E. coli LPS (1 μg/ml; Sigma, St. Louis, Mo.) overnight (16-20 hours). MMP-9 levels in the medium were measured using an ELISA kit (GE Healthcare, Piscataway, N.J.), and cytokines were assayed using a Milliplex MAP human cytokine/chemokine kit (Millipore, Billerica, Mass.). Analytes were quantified using a Luminex 100™ IS. Data were analyzed using a five-parameter logistic method."}, "[1]": {"system": "rheumatoid arthritis synovial fibroblasts (RASF)", "assay": "IL-1β-mediated inflammatory factors in RASFs", "assay_type": "cell-based, Human", "conditions": "IL-1β-induced, 50, 25, 12.5, and 6.25 μM", "experimental": "The anti-inflammatory effect of (+)-KDT501 was evaluated in rheumatoid arthritis synovial fibroblasts (RASF).\nHuman RASF cells (Asterand, Detroit, Mich.) were cultured and maintained in DMEM/F12 (1:1) medium in the presence of 10% fetal bovine serum. Cells were subcultured in 24-well plates at a density of 1×10^4 cells per well and allowed to reach 70-80% confluence in two days. Confluent cells in serum-free medium at a final concentration of 0.1% DMSO were incubated for one hour with (+)-KDT501 at varying concentrations (50, 25, 12.5, and 6.25 μM), then stimulated with […] (10 ng/ml) for 20-24 hours. MMP-13 levels in the medium were measured using an ELISA kit (GE Healthcare, Piscataway, N.J.), and PGE2 levels were measured using an Immuno Assay Kit (Assay Designs, Ann Arbor, Mich.)."}, "PPARδ": {"target": "T1, PPARδ (Homo sapiens, UniProt Q03181)", "T1 sequence (Q03181 1-441)": "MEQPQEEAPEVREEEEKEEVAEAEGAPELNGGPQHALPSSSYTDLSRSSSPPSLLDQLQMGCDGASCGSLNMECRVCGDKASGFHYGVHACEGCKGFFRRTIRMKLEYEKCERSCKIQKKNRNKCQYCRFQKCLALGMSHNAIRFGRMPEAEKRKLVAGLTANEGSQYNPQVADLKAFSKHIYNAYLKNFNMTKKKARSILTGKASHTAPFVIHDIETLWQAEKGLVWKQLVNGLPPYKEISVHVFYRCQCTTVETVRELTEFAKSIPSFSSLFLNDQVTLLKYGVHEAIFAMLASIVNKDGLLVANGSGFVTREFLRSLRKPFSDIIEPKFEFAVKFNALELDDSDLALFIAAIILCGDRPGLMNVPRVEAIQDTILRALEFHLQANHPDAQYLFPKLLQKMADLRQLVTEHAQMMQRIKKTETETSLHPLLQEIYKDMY", "assay": "PPARδ luciferase reporter assay", "assay_type": "cell-based", "conditions": "reporter cells, 20 hours", "experimental": "The functional effect of (+)-KDT501 on PPARα, PPARδ, and PPARγ activity was evaluated using a PPAR reporter assay (INDIGO Biosciences, PA). This assay utilizes non-human mammalian cells engineered to provide constitutive high level expression of PPARα, PPARδ, or PPARγ and containing a luciferase report gene specific to the appropriate PPAR. Following activation by agonist binding, PPAR induces expression of the luciferase reporter gene. Luciferase activity therefore provides a surrogate for measuring PPAR activity in agonist-treated cells.\nReporter cells were plated on a 96-well plate at 100 μL per well, and 100 μL of (+)-KDT501 at various final concentrations (25, 12.5, 6.25, 3.125, 1.56 and 0.78 μM) was added to each well. […] 0.1% DMSO was also used as a negative control for each assay. Plates are incubated for 20 hours in a humidified incubator at 37° C. and 5% CO2. After incubation, cell medium was discarded and the cells were treated with 100 μL of luciferase detection reagent for 15 minutes. Plates were analyzed using a luminometer (Victor2, Perkin Elmer). Average relative light unit (RLU) and standard deviation were analyzed using GraphPad Prism."}}}
{"smiles": "CC(C)CCC(=O)[C@@]1(O)C(O)=C(C(=O)CC(C)C)C(=O)[C@@H]1CCC(C)C.[K]", "note": "[(+)-KDT501, (+)-(4S,5R)-3,4-dihydroxy-2-(3-methylbutanoyl)-5-(3-methylbutyl)-4-(4-methylpentanoyl)cyclopent-2-en-1-one potassium salt]", "values": [{"measurement": "lipogenesis (intracellular lipid, Oil Red O)", "setting": "3T3-L1 adipocytes; 3T3-L1 adipocytes, 6.25, 12.5, and 25 μM", "result": "increased lipogenesis in 3T3-L1 adipocytes in a statistically significant manner"}, {"measurement": "adipogenesis", "setting": "3T3-L1 adipocytes; 3T3-L1 murine fibroblast model", "result": "induce both lipogenesis and adipogenesis in a dose-dependent manner"}, {"measurement": "expression of IL-1β", "setting": "THP-1 cells", "result": "inhibited"}, {"measurement": "expression of MCP-1", "setting": "THP-1 cells", "result": "inhibited"}, {"measurement": "expression of MIP-1α", "setting": "THP-1 cells", "result": "inhibited"}, {"measurement": "expression of MMP-9", "setting": "THP-1 cells", "result": "inhibited"}, {"measurement": "expression of RANTES", "setting": "THP-1 cells", "result": "inhibited"}, {"measurement": "expression of MMP-13", "setting": "[1]", "result": "inhibited"}, {"measurement": "expression of PGE2", "setting": "[1]", "result": "inhibited"}, {"measurement": "PPARδ activity", "setting": "PPARδ", "result": "little or no effect"}]}
